Experimental data reported in the OPERA property sets (Mansouri et al. 2018).

Details: not given

| SMILES | melting point [°C] | log10 Koc (L/kg) | boiling point [°C] | log10 vapour pressure (mmHg) | log10 Henry constant (atm·m³/mol) | log10 Koa | ready biodegradability |
| --- | --- | --- | --- | --- | --- | --- | --- |
| Nc1cc(Cl)ccc1[N+](=O)[O-] | 128 | – | – | – | – | – | – |
| Cc1cccc(OC(N)=O)c1 | – | 1.48 | – | – | – | – | – |
| FC1=C(F)C(F)(F)C(F)(F)C(F)(F)C1(F)F | – | – | 52 | – | – | – | – |
| CCCCCCCOc1ccc(O)cc1 | 61.5 | – | – | – | – | – | – |
| CCCCCCCCCCCCCCCCCC(=O)OC1CCCCC1 | 44 | – | – | – | – | – | – |
| O=COCCOC=O | – | – | 174 | – | – | – | – |
| O=Cc1cc(Cl)cc(Cl)c1 | 65 | – | 240 | – | – | – | – |
| CCCI | -101 | – | 103 | 1.63 | – | – | – |
| O=C(O)C(F)(F)F | -15.2 | – | 73 | 2.04 | -6.95 | – | – |
| CCOC(=O)C=[N+]=[N-] | -22 | – | – | 0.447 | – | – | – |
| CCC(O)CO[N+](=O)[O-] (stereo not drawn) | – | – | – | – | -6.76 | – | – |
| Cc1ccc(N=c2sccn2C)c(C)c1 | 44 | – | – | -4.74 | – | – | – |
| CC1(C)CCCc2ccccc21 | – | – | 221 | – | – | – | – |
| COc1cc(O)c(C(=O)c2ccccc2)c(O)c1 | 130 | – | – | – | – | – | – |
| CCC(=O)C1CCCCC1 | – | – | 196 | – | – | – | – |
| CCC(=O)OCCOC(=O)CC | – | – | 211 | – | – | – | – |
| Fc1ccc(Br)cc1 | -17.4 | – | 152 | – | – | – | – |
| CC1CS(=O)(=O)CCN1N=Cc1ccc([N+](=O)[O-])o1 (stereo not drawn) | 181 | – | – | – | – | – | – |
| C=C(C)C(CC)CC | -113 | – | 110 | – | – | – | – |
| Nc1ccc([N+](=O)[O-])cn1 | 187 | – | – | – | – | – | – |
| CC(C)(C)C1CCC(O)CC1 (stereo not drawn) | 66 | – | – | -1.15 | – | – | – |
| CN1C(=O)C=CC1=O | 95 | – | – | – | – | – | – |
| CCCCNC(N)=O | 97 | – | – | – | – | – | – |
| CCCC1CCCC(C)C1 (stereo not drawn) | – | – | 164 | – | – | – | – |

| SMILES | melting point [°C] | log10 Koc (L/kg) | boiling point [°C] | log10 vapour pressure (mmHg) | log10 Henry constant (atm·m³/mol) | log10 Koa | ready biodegradability |
| --- | --- | --- | --- | --- | --- | --- | --- |
| Cc1nc2ccccc2c(=O)n1-c1ccccc1Cl | 127 | – | – | – | – | – | – |
| FCCBr | – | – | 71.5 | – | – | – | – |
| Oc1cc(Cl)cc(Br)c1 | 70 | – | 256 | – | – | – | – |
| COc1nc(C)nc(NC(=O)NS(=O)(=O)c2ccccc2OCCCl)n1 | 186 | 2.02 | – | – | – | – | – |
| CCCCCCCCCCCCCCCC(C)=O | 48 | – | 320 | – | – | – | – |
| C1CC[C@@H]2NCCC[C@@H]2C1 | -40 | – | 206 | – | – | – | – |
| Cc1ccc(C(C)c2ccc(C)cc2)cc1 | – | – | 298 | – | – | – | – |
| CCCN(CCC)C(C)=O | – | – | 210 | – | – | – | – |
| O=[N+]([O-])c1ccc(O)cc1O | 122 | – | – | – | – | – | – |
| Cc1ccc2c(c1)CC(C)CC2 (stereo not drawn) | – | – | 237 | – | – | – | – |
| O=C1OC2(c3ccccc31)c1cc(Br)c(O)c(Br)c1Oc1c2cc(Br)c(O)c1Br | 295 | – | – | – | – | – | – |
| OCCCl | -67.5 | – | 129 | 0.856 | – | 4.3 | readily biodegradable |
| CCC(C)C=O (stereo not drawn) | 91 | – | – | – | – | – | – |
| COP(=O)(NC(C)=O)SC (stereo not drawn) | 88 | 0.3 | – | -5.77 | – | – | readily biodegradable |
| C=CCC1(C(C)CCC)C(=O)NC(=S)NC1=O (stereo not drawn) | 132 | – | – | – | – | – | – |
| S=C=NC1CCCCC1 | – | – | 220 | – | – | – | – |
| CCOP(=O)(OCC)ON1C(=O)c2cccc3cccc(c23)C1=O | 177 | – | – | – | – | – | – |
| Clc1ccc2cc(Cl)c(Cl)c(Cl)c2c1 | – | – | – | – | – | 8.35 | – |
| CC(=O)OCC1=C(C(=O)O)N2C(=O)[C@@H](NC(=O)Cc3cccs3)[C@H]2SC1 | 160 | – | – | – | – | – | – |
| CCCC(C=O)CCC | – | – | 160 | – | – | – | – |
| CCOCn1c(-c2ccc(Cl)cc2)c(C#N)c(Br)c1C(F)(F)F | 100 | – | – | – | – | – | – |
| O=C(O)CCC(=O)OOC(=O)CCC(=O)O | 127 | – | – | – | – | – | – |
| CCCOc1ccc([N+](=O)[O-])cc1NC(C)=O | 102 | – | – | – | – | – | – |
| Cc1cccc(C=O)c1 | – | – | 199 | – | – | – | – |

| SMILES | melting point [°C] | log10 Koc (L/kg) | boiling point [°C] | log10 vapour pressure (mmHg) | log10 Henry constant (atm·m³/mol) | log10 Koa | ready biodegradability |
| --- | --- | --- | --- | --- | --- | --- | --- |
| COCC(C)C | – | – | 58.6 | 2.32 | – | – | – |
| C1CSC1 | -73.2 | – | 95 | 1.72 | – | – | – |
| CCCC(CCC)CCC | – | – | 158 | – | – | – | – |
| Clc1cc(Cl)c2c(Cl)ccc(Cl)c2c1 | – | – | – | – | – | 8.28 | – |
| CC(=O)O[C@]1(C(C)=O)CC[C@H]2[C@@H]3C=C(Cl)C4=CC(=O)CC[C@]4(C)[C@H]3CC[C@@]21C | 213 | – | – | – | – | – | – |
| CCOC(O)C(F)(F)F (stereo not drawn) | – | – | 104 | – | – | – | – |
| CCCCCCCCCc1cccc(O)c1CCCCCCCCC | – | – | – | – | – | – | not readily biodegradable |
| CC(C)=CCC/C(C)=C/C=C/C(C)=C/C=C/C(C)=C/C=C/C=C(C)/C=C/C=C(C)/C=C/C=C(\C)CCC=C(C)C | 175 | – | – | – | – | – | – |
| NC(Cc1n[nH]c2ccccc12)C(=O)O (stereo not drawn) | 240 | – | – | – | – | – | – |
| CCCCS | -116 | – | 98.5 | 1.66 | -2.34 | – | – |
| Nc1nc[nH]n1 | 159 | 1.25 | – | -6.36 | – | – | not readily biodegradable |
| O=C(Cc1c(Cl)ccc(Cl)c1Cl)[O][Na] | – | 1.72 | – | – | – | – | – |
| O=C(O)c1cccc(F)c1 | 124 | – | – | – | – | – | – |
| CC(C)OC(=O)C(C)Cl (stereo not drawn) | – | – | 152 | – | – | – | – |
| CCS(=O)(=O)c1ccccc1 | 42 | – | – | – | – | – | – |
| CCOC(=O)C1CCCCC1 | – | – | 196 | – | – | – | – |
| Oc1ccc(C(c2ccc(O)cc2)(C(F)(F)F)C(F)(F)F)cc1 | 162 | – | – | – | – | – | – |
| CC(C)=CCCl | – | – | 109 | – | – | – | – |
| O=[N+]([O-])c1ccc(O)c2ncccc12 | 180 | – | – | – | – | – | – |
| C(=N\C(/N=C/c1ccco1)c1ccco1)/c1ccco1 | 117 | – | – | – | – | – | – |
| O=C1CCSc2ccccc21 | 29 | – | – | – | – | – | – |
| O=C(OCCO)c1ccccc1 | 45 | – | – | – | – | – | – |

Same assay, conditions: fish

| SMILES | log10 biotransformation half-life (days) | log10 BCF |
| --- | --- | --- |
| CCCCCCCC1CCCCC1 | 0.17 | – |
| Clc1cc2oc3c(Cl)c(Cl)c(Cl)c(Cl)c3c2cc1Cl | – | 3.9 |
| Clc1ccc(-c2cc(Cl)cc(Cl)c2Cl)cc1 | 2.43 | – |
| CCCCCC[Si](O)(CCCCCC)CCCCCC | 0.04 | 2.7 |
| Clc1cccc(-c2c(Cl)ccc(Cl)c2Cl)c1 | 2.47 | – |
| Nc1nc[nH]n1 | – | 0.49 |
